From patent publication US10555987B2, “GHRH agonists for the treatment of ischemic disorders” (UNIVERSITY OF MIAMI, priority 2012, dated 2020) come the findings set out here.

One test concerns GH release. In words: GH releasing potency in vivo, subcutaneous administration (Example 14, Table 12). As to conditions: s.c.; for Serum GH level at selected time after injection (ng/ml), 0 min / Serum GH level at selected time after injection (ng/ml), 15 min / Serum GH level at selected time after injection (ng/ml), 30 min: male rats, dose 3 μg/kg, mean ± SEM. Also on record: species or system rat. How it is done: Male Sprague-Dawley rats, weighing 200-250 g, were purchased from Charles River Laboratory (Wilmington, Mass.) and used for experiments. All animal procedures were approved by the Veterans Affairs Animal Care and Use Committee and were conducted in accordance with additional institutional guidelines as well. Briefly, groups of 5-6 animals were used in each experiment. The rats were anesthetized with 50 mg/kg of sodium pentobarbital (Nembutal, Lundbeck Inc., Deerfield, Ill.). Twenty min after inducing anesthesia, GHRH(1-29)NH2, JI-38, or new analogs were injected into the animals intravenously (i.v.) or subcutaneously (s.c.). The peptides were dissolved in 0.01 M acetic acid to get 1 μg/μl stock solution, and then diluted with 5% mannitol. Control rats received 5% mannitol only. Blood samples were collected from the jugular vein at selected times and were used for serum preparation. Concentrations of GH in rat sera were determined by ELISA. The relative potencies of tested peptides were calculated using GHRH(1-29)NH2 and JI-38 for comparison, whose potency was defined as 1. The equivalent dosage of GHRH(1-29)NH2 to reach the same level of serum growth hormone release after injection of the specific tested peptide was determined from a GHRH(1-29)NH2 standard curve using Origin 6.0 software. […] Serum GH was determined using the rat Growth Hormone ELISA kit (ALPCO Diagnostics, Mill Valley, Calif.) according to the manufacturer's instruction. Absorbance at 405 nm was measured by a Victor 3 Multi-label Counter (Perkin-Elmer, Waltham, Md.).

The target of test [1] is T1, GHRH receptor (Homo sapiens, UniProt Q02643).
T1 sequence (Q02643 23-423): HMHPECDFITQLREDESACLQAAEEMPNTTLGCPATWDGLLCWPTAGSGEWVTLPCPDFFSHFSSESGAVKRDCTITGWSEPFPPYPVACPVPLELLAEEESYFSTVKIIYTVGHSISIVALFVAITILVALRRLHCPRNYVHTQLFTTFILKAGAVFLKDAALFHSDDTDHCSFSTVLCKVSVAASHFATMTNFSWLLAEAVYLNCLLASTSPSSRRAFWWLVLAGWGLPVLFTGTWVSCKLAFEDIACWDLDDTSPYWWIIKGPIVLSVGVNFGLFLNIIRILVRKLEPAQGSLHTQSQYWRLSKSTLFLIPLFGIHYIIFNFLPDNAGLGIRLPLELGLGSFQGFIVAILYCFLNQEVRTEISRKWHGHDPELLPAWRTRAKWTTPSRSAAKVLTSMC
In words: GHRH receptor binding, competition with 125I-labeled JV-1-42, human pituitary membrane homogenates (Table 7). As to conditions: JI-38 = 1, Table 7. Set-up: Normal human pituitaries were purchased from the National Hormone and Peptide Program; tissue National Hormone and Peptide Program (A.F. Parlow, Harbor-UCLA Medical Center, Torrance, Calif.); host or cells: normal human pituitary, membrane fraction. The text has this: Normal human pituitaries were purchased from the National Hormone and Peptide Program (A.F. Parlow, Los Angeles, County Harbor-UCLA Medical Center, Torrance, Calif.).

In test [2] the target is T1, GHRH receptor. In words: Receptor binding in vitro, 125I-labeled [His1,Nle27]-hGHRH(1-32)NH2, membrane receptors of human anterior pituitary cells (Table 14). The settings on record: for Relative affinity (Binding potency) compared to JI-38: JI-38 = 1; for Relative affinity (Binding potency) compared to hGHRH(1-29): hGHRH(1-29)NH2 = 1.
Excerpt: Normal human pituitary was purchased from the National Hormone and Peptide Program (UCLA Medical Center, Torrance, Calif.).

Marks after values point to notes of the source that are not given here. Non-standard residues stand in square brackets, D forms with d. Residues, ends and D or L forms follow the SMILES beside them. *: point of attachment. Desaminotyrosyl = O=C(CCc1ccc(O)cc1)*; NMeY = CN[C@@H](Cc1ccc(O)cc1)C(=O)O; Nle = CCCC[C@H](N)C(=O)O; Orn = NCCC[C@H](N)C(=O)O; Abu = CC[C@H](N)C(=O)O

For `CCCC[C@H](NC(=O)[C@@H](NC(=O)[C@H](CC(=O)O)NC(=O)[C@H](CCC(N)=O)NC(=O)[C@H](CC(C)C)NC(=O)[C@H](CC(C)C)NC(=O)[C@H](CCCN)NC(=O)[C@H](CCCNC(=N)N)NC(=O)[C@H](C)NC(=O)[C@H](CO)NC(=O)[C@H](CC(C)C)NC(=O)[C@H](CCC(N)=O)NC(=O)[C@H](CC)NC(=O)[C@H](CC(C)C)NC(=O)[C@@H](NC(=O)[C@H](CCCN)NC(=O)[C@H](CCCNC(=N)N)NC(=O)[C@H](Cc1ccc(O)cc1)NC(=O)[C@H](CO)NC(=O)[C@H](CCC(N)=O)NC(=O)[C@@H](NC(=O)[C@H](Cc1ccccc1)NC(=O)[C@@H](NC(=O)[C@H](C)NC(=O)[C@H](CC(=O)O)NC(=O)[C@H](C)NC(=O)CCc1ccc(O)cc1)[C@@H](C)CC)[C@@H](C)O)C(C)C)[C@@H](C)CC)C(=O)N[C@@H](CC(=O)O)C(=O)N[C@@H](CCCNC(=N)N)C(=O)NC` [Peptide P-27407, [Dat^1, Gln^8, Orn^12, Abu^15, Orn^21, Nle^27, Asp^28]hGHRH(1-29)NH—CH3] (Desaminotyrosyl-ADAIFTQSYR[Orn]VL[Abu]QLSAR[Orn]LLQDI[Nle]DR-NHMe), in the test on GH release, the “Serum GH level at selected time after injection (ng/ml), 0 min” value was determined as 36.7 ± 10.2 ng/mL; the “Serum GH level at selected time after injection (ng/ml), 15 min” value (shortened to “Serum GH level at selected time … 15 min”) worked out at 248.0 ± 40.5 ng/mL; the “Serum GH level at selected time after injection (ng/ml), 30 min” value (“Serum GH level at selected time … 30 min” below) was found to be 135.2 ± 10.8 ng/mL; the “Relative potency compared to GHRH(1-29), 15 min” value stood at 69.6. In the test with GH release, the “Relative potency compared to JI-38, 15 min” value came to 1.10; the “Relative potency compared to GHRH(1-29), 30 min” value was found to be 122; the “Relative potency compared to JI-38, 30 min” value was 1.09. Also, the “Relative affinity (Binding potency) vs JI-38” value (from here on “Relative affinity … vs JI-38”) on GHRH receptor [1] came out at 1.45. On GHRH receptor [2], the “Relative affinity (Binding potency) compared to JI-38” value (“Relative affinity … to JI-38” below) worked out at 0.54 and the “Relative affinity (Binding potency) compared to hGHRH(1-29)” value (“Relative affinity … to hGHRH(1-29)” below) was 1.52.

In the case of `CCCC[C@H](NC(=O)[C@@H](NC(=O)[C@H](CC(=O)O)NC(=O)[C@H](CCC(N)=O)NC(=O)[C@H](CC(C)C)NC(=O)[C@H](CC(C)C)NC(=O)[C@H](CCCN)NC(=O)[C@H](CCCNC(=N)N)NC(=O)[C@H](C)NC(=O)[C@H](CO)NC(=O)[C@H](CC(C)C)NC(=O)[C@H](CCC(N)=O)NC(=O)[C@H](CC)NC(=O)[C@H](CC(C)C)NC(=O)[C@@H](NC(=O)[C@H](CCCN)NC(=O)[C@H](CCCNC(=N)N)NC(=O)[C@H](Cc1ccc(O)cc1)NC(=O)[C@H](CO)NC(=O)[C@H](CC(N)=O)NC(=O)[C@@H](NC(=O)[C@H](Cc1ccccc1)NC(=O)[C@@H](NC(=O)[C@H](C)NC(=O)[C@H](CC(=O)O)NC(=O)[C@@H](C)NC(=O)[C@H](Cc1ccc(O)cc1)NC)[C@@H](C)CC)[C@@H](C)O)C(C)C)[C@@H](C)CC)C(=O)N[C@@H](CC(=O)O)C(=O)N[C@@H](CCCNC(=N)N)C(=O)NCC` [Peptide P-28421, [N—Me-Tyr^1, D-Ala^2, Orn^12, Abu^15, Orn^21, Nle^27, Asp^28]hGHRH(1-29) NH—CH2—CH3] (H-[NMeY][dA]DAIFTNSYR[Orn]VL[Abu]QLSAR[Orn]LLQDI[Nle]DR-NHEt), in the test with GH release, the “Serum GH level at selected time after injection (ng/ml), 0 min” value came to 44.0 ± 8.9 ng/mL; the “Serum GH level at selected time … 15 min” value stood at 252.4 ± 33.3 ng/mL; the “Serum GH level at selected time … 30 min” value stood at 137.3 ± 17.5 ng/mL; the “Relative potency compared to GHRH(1-29), 15 min” value came out at 71.2. Further, in the test with GH release, the “Relative potency compared to JI-38, 15 min” value is reported as 1.13; the “Relative potency compared to GHRH(1-29), 30 min” value amounted to 125.4; the “Relative potency compared to JI-38, 30 min” value is 1.12. Besides, the “Relative affinity … vs JI-38” value at GHRH receptor [1] is reported as 2.96. Moreover, at GHRH receptor [2], the “Relative affinity … to JI-38” value was found to be 0.90 and the “Relative affinity … to hGHRH(1-29)” value came to 2.50.

As to `CCCC[C@H](NC(=O)[C@@H](NC(=O)[C@H](CC(=O)O)NC(=O)[C@H](CCC(N)=O)NC(=O)[C@H](CC(C)C)NC(=O)[C@H](CC(C)C)NC(=O)[C@H](CCCN)NC(=O)[C@H](CCCNC(=N)N)NC(=O)[C@H](C)NC(=O)[C@H](CO)NC(=O)[C@H](CC(C)C)NC(=O)[C@H](CCC(N)=O)NC(=O)[C@H](CC)NC(=O)[C@H](CC(C)C)NC(=O)[C@@H](NC(=O)[C@H](CCCN)NC(=O)[C@H](CCCNC(=N)N)NC(=O)[C@H](Cc1ccc(O)cc1)NC(=O)[C@H](CO)NC(=O)[C@H](CCC(N)=O)NC(=O)[C@@H](NC(=O)[C@H](Cc1ccccc1)NC(=O)[C@@H](NC(=O)[C@H](C)NC(=O)[C@H](CC(=O)O)NC(=O)[C@@H](C)NC(=O)[C@H](Cc1ccc(O)cc1)NC)[C@@H](C)CC)[C@@H](C)O)C(C)C)[C@@H](C)CC)C(=O)N[C@@H](CC(=O)O)C(=O)N[C@@H](CCCNC(=N)N)C(=O)NCC` [Peptide P-28420, [N—Me-Tyr^1, D-Ala^2, Gln^8, Orn^12, Abu^15, Orn^21, Nle^27, Asp^28]hGHRH(1-29)NH—CH2—CH3] (H-[NMeY][dA]DAIFTQSYR[Orn]VL[Abu]QLSAR[Orn]LLQDI[Nle]DR-NHEt), in the test on GH release, the “Serum GH level at selected time after injection (ng/ml), 0 min” value was 35.5 ± 7.6 ng/mL; the “Serum GH level at selected time … 15 min” value came out at 256.2 ± 46.0 ng/mL; the “Serum GH level at selected time … 30 min” value was 126.1 ± 15.8 ng/mL; the “Relative potency compared to GHRH(1-29), 15 min” value is given as 72.6. Moreover, in the test on GH release, the “Relative potency compared to JI-38, 15 min” value turned out to be 1.15; the “Relative potency compared to GHRH(1-29), 30 min” value is on record as 107.8; the “Relative potency compared to JI-38, 30 min” value is on record as 0.96. The “Relative affinity … vs JI-38” value at GHRH receptor [1] is reported as 8.37. Moreover, on GHRH receptor [2], the “Relative affinity … to JI-38” value was 1.01 and the “Relative affinity … to hGHRH(1-29)” value was 2.83.

As to `CCCC[C@H](NC(=O)[C@@H](NC(=O)[C@H](CC(=O)O)NC(=O)[C@H](CCC(N)=O)NC(=O)[C@H](CC(C)C)NC(=O)[C@H](CC(C)C)NC(=O)[C@H](CCCN)NC(=O)[C@H](CCCNC(=N)N)NC(=O)[C@H](C)NC(=O)[C@H](CO)NC(=O)[C@H](CC(C)C)NC(=O)[C@H](CCC(N)=O)NC(=O)[C@H](CC)NC(=O)[C@H](CC(C)C)NC(=O)[C@@H](NC(=O)[C@H](CCCN)NC(=O)[C@H](CCCNC(=N)N)NC(=O)[C@H](Cc1ccc(O)cc1)NC(=O)[C@H](CO)NC(=O)[C@@H](NC(=O)[C@@H](NC(=O)[C@H](Cc1ccccc1)NC(=O)[C@@H](NC(=O)[C@H](C)NC(=O)[C@H](CC(=O)O)NC(=O)[C@@H](C)NC(=O)[C@H](Cc1ccc(O)cc1)NC)[C@@H](C)CC)[C@@H](C)O)[C@@H](C)O)C(C)C)[C@@H](C)CC)C(=O)N[C@@H](CC(=O)O)C(=O)N[C@@H](CCCNC(=N)N)C(=O)NC` [Peptide P-27410, [N—Me-Tyr^1, D-Ala^2, Thr^8, Orn^12, Abu^15, Orn^21, Nle^27, Asp^28]hGHRH (1-29)NH—CH3] (H-[NMeY][dA]DAIFTTSYR[Orn]VL[Abu]QLSAR[Orn]LLQDI[Nle]DR-NHMe), in the test with GH release, the “Serum GH level at selected time after injection (ng/ml), 0 min” value was 34.1 ± 1.2 ng/mL; the “Serum GH level at selected time … 15 min” value came out at 334.0 ± 54.0 ng/mL; the “Serum GH level at selected time … 30 min” value was 250.4 ± 28.6 ng/mL; the “GH-releasing potency after s.c. administration (in words)” value is “significantly higher potencies at 30 minutes than at 15 minutes”. In the test on GH release, the “Relative potency compared to GHRH(1-29), 15 min” value turned out to be 102.5; the “Relative potency compared to JI-38, 15 min” value is reported as 1.58; the “Relative potency compared to GHRH(1-29), 30 min” value turned out to be 363.2; the “Relative potency compared to JI-38, 30 min” value was 3.25*. Besides, the “Relative affinity … vs JI-38” value at GHRH receptor [1] came out at 5.24. Further, on GHRH receptor [2], the “Relative affinity … to JI-38” value worked out at 2.14 and the “Relative affinity … to hGHRH(1-29)” value came out at 5.98.
